Data as given in US7393824B1, “Methods of peptide preparation” (Lytix Biopharma, priority 2000, dated 2008).
Where two headings read alike, the source gives them in different places. Residues, ends and D or L forms follow the SMILES beside them.

What was measured:
Type in all cases: cell-based
[1] = test system: MRC-5 cells (normal fibroblasts); experiment: Fibroblast assay (MTT)
Procedure: The cells were washed with PBS and then trypsinated using 2 ml trypsin (for a 80 cm culture flask). After the cells had detached from the wall, usually after ca 3 min. of incubation, 5 ml medium with FBS were added. The cells were resuspended and counted. The cells were then transferred to a centrifugation tube and spinned at 1500 rpm for 10 min. The supernatant was removed and the cells resuspended to a concentration of 1×10^5 cells/ml. 100 ul cells suspension was transferred to each well in a 96-well microtiter plate and incubated for 25 hours to allow the cells to attach. Following the incubation, the medium containing serum was removed by turning the plate upside down against a piece of tissue. 100 ul medium without serum and L-glutamine (assay medium) was added to each well, and then removed as before. This was done to remove any trace of serum. […] The rest of the assay was done as previously described for methA, except that after the 2 hour incubation following MTT addition, 80 ul medium instead of 130 ul were removed.

human red blood cells = experiment: Hemolytic assay
Procedure: The hemolytic activities of the peptides were determined using fresh human red blood cells. 8 ml blood was taken from a healthy person. 4 ml blood was transferred to a polycarbonate tube containing heparin to a final concentration of 10 U/ml, and the remaining 4 ml blood was transferred to a glass tube containing EDTA with final concentration of 15% EDTA. The erythrocytes were isolated from heparin-treated blood by centrifugation in 1500 rpm for 10 min and washed three times with phosphate-buffered saline (PBS) to remove plasma and buffy coat. The cell pellet was resuspended in PBS to make the final volume of 4 ml. The peptide was diluted to a concentration of 2 mg/ml and 0.1 mg/ml. The peptide was further diluted to the concentrations as stated in Table 1. For each tube PBS was added first, then RBCs and peptide solutions. The hematocrit in the blood treated with EDTA was determined after 30 min with Sysmex K-1000, and the resuspended RBCs were diluted into 10% hematocrit. RBCs in PBS (1%) with and without peptides (Table 18) were incubated in a shaker at […] for 1 hour and then centrifuged at 4000 rpm for 5 min. The supernatant were carefully transferred to new polycarbonate tubes and the absorbance of the supernatant was measured at 540 nm. Baseline hemolysis was hemoglobin released in the presence of PBS, and 100% hemolysis was hemoglobin released in the presence of 0.1% Triton X-100.

[2] = test system: Meth A murine sarcoma cell line
Procedure: Peptide solutions (0.1 ml) were added and the plates incubated at 37° C. for 30 minutes, 4 hours or 24 hours. The cytotoxicity was measured using the MTT method (Mosmann et al., J. Immunol. (1986) 136, 2348-2357).

[3] = test system: Escherichia coli ATCC 25922; details: Table 2
Procedure: The bacterial strains used were: Escherichia coli ATCC 25922 and Staphylococcus aureus ATCC 25923. All strains were stored at −70° C. The bacteria were grown in 2% Bacto Peptone water (Difco 1807-17-4). All tests were performed with bacteria in mid-logarithmic growth phase. Determination of the minimum inhibitory concentration (MIC) of the peptides for bacterial strains were performed in 1% Bacto Peptone water. A standard microdilution technique with an inoculum of 2×10^6 CFU/ml was used. All assays were performed in triplets. Since the peptides are positively charged and therefore could adhere to the plastic wells, we controlled the actual concentration of the peptides in the solution by HPLC. There was no difference between the concentration of the peptides before or after adding the solution to the plastic wells.

[4] = Table 3, unit inferred, read-out: Fib IC50
[5] = Table 3, unit inferred, read-out: RBC EC50
[6] = Table 3, unit inferred, read-out: Meth A IC50

Row | Compound | IC50 [1, 4] [µM] | EC50 (human red blood cells; [5]) [µM] | IC50 [2, 6] [µM] | further results
1 | C[C@H](NC(=O)[C@H](C)NC(=O)[C@H](CCCCN)NC(=O)[C@H](CCCCN)NC(=O)[C@H](Cc1c[nH]c2ccccc12)NC(=O)[C@H](C)NC(=O)[C@H](CCCCN)NC(=O)[C@H](C)NC(=O)[C@H](Cc1c[nH]c2ccccc12)NC(=O)[C@H](CCCCN)NC(=O)[C@H](CCCCN)NC(=O)[C@H](C)NC(=O)[C@H](C)NC(=O)[C@@H](N)CCCCN)C(=O)N[C@@H](CCCCN)C(=O)N[C@@H](C)C(=O)N[C@@H](Cc1c[nH]c2ccccc12)C(=O)N[C@@H](CCCCN)C(=O)O [KA 18W6,10,17] (H-KAAKKWAKAWKKAAKAWK-OH; N-terminus and C-terminus assumed) | – | – | – | IC50 [1]: > 211 µM; EC50 (human red blood cells; red cells of human): > 422 µM; IC50 ([2]; Table 1, KA18 peptides, read-out: IC50 Meth A): ≥ 211 µM
2 | C[C@H](NC(=O)[C@H](C)NC(=O)[C@H](CCCCN)NC(=O)[C@H](CCCCN)NC(=O)[C@H](C)NC(=O)[C@H](Cc1c[nH]c2ccccc12)NC(=O)[C@H](CCCCN)NC(=O)[C@H](Cc1c[nH]c2ccccc12)NC(=O)[C@H](C)NC(=O)[C@H](CCCCN)NC(=O)[C@H](CCCCN)NC(=O)[C@H](C)NC(=O)[C@H](C)NC(=O)[C@@H](N)CCCCN)C(=O)N[C@@H](CCCCN)C(=O)N[C@@H](Cc1c[nH]c2ccccc12)C(=O)N[C@@H](C)C(=O)N[C@@H](CCCCN)C(=O)O [KA 18W7,9,16] (H-KAAKKAWKWAKKAAKWAK-OH; N-terminus and C-terminus assumed) | – | – | – | IC50 [1]: > 211 µM; EC50 (human red blood cells; red cells of human): > 422 µM; IC50 ([2]; 4 h): 32 µM
3 | C[C@H](NC(=O)[C@H](C)NC(=O)[C@H](CCCCN)NC(=O)[C@H](C)NC(=O)[C@H](C)NC(=O)[C@H](CCCCN)NC(=O)[C@H](CCCCN)NC(=O)[C@H](Cc1c[nH]c2ccccc12)NC(=O)[C@H](C)NC(=O)[C@H](CCCCN)NC(=O)[C@H](C)NC(=O)[C@H](C)NC(=O)[C@H](CCCCN)NC(=O)[C@H](CCCCN)NC(=O)[C@H](C)NC(=O)[C@H](C)NC(=O)[C@@H](N)CCCCN)C(=O)N[C@@H](CCCCN)C(=O)O [KA 18W10] (H-KAAKKAAKAWKKAAKAAK-OH; N-terminus and C-terminus assumed) | – | – | – | IC50 [1]: > 234 µM; EC50 (human red blood cells; red cells of human): > 467 µM; IC50 ([2]; 4 h): > 234 µM
4 | C[C@H](NC(=O)[C@H](C)NC(=O)[C@H](CCCCN)NC(=O)[C@H](CCCCN)NC(=O)[C@H](C)NC(=O)[C@H](C)NC(=O)[C@@H](N)CCCCN)C(=O)N[C@@H](CCCCN)C(=O)N[C@@H](C)C(=O)N[C@@H](C)C(=O)N[C@@H](CCCCN)C(=O)N[C@@H](CCCCN)C(=O)N[C@@H](C)C(=O)N[C@@H](C)C(=O)N[C@@H](CCCCN)C(=O)N[C@@H](Cc1c[nH]c2ccccc12)C(=O)N[C@@H](C)C(=O)N[C@@H](CCCCN)C(=O)O [KA 18W16] (H-KAAKKAAKAAKKAAKWAK-OH; N-terminus and C-terminus assumed) | – | – | – | IC50 [1]: > 234 µM; EC50 (human red blood cells; red cells of human): > 467 µM; IC50 ([2]; 4 h): > 234 µM
5 | C[C@H](NC(=O)[C@H](C)NC(=O)[C@H](CCCCN)NC(=O)[C@H](Cc1c[nH]c2ccccc12)NC(=O)[C@H](C)NC(=O)[C@H](CCCCN)NC(=O)[C@H](CCCCN)NC(=O)[C@H](C)NC(=O)[C@H](C)NC(=O)[C@@H](N)CCCCN)C(=O)N[C@@H](CCCCN)C(=O)N[C@@H](CCCCN)C(=O)N[C@@H](C)C(=O)N[C@@H](C)C(=O)N[C@@H](CCCCN)C(=O)N[C@@H](Cc1c[nH]c2ccccc12)C(=O)N[C@@H](C)C(=O)N[C@@H](CCCCN)C(=O)O [KA W7,16] (H-KAAKKAWKAAKKAAKWAK-OH; N-terminus and C-terminus assumed) | – | – | – | IC50 [1]: > 222 µM; EC50 (human red blood cells; red cells of human): > 444 µM; IC50 ([2]; 4 h): > 222 µM
6 | CSCC[C@H](NC(=O)[C@H](CCCNC(=N)N)NC(=O)[C@H](Cc1c[nH]c2ccccc12)NC(=O)[C@H](C)NC(=O)[C@H](Cc1c[nH]c2ccccc12)NC(=O)[C@H](CCCNC(=N)N)NC(=O)[C@H](Cc1ccccc1)NC(=O)[C@H](C)NC(=O)[C@H](CCCCN)NC(=O)[C@H](CCCNC(=N)N)NC(=O)[C@H](Cc1c[nH]c2ccccc12)NC(=O)[C@H](C)NC(=O)[C@@H]1CCCN1)C(=O)N[C@@H](CC(C)C)C(=O)N[C@@H](CCCCN)C(=O)N[C@@H](CCCCN)C(=O)N[C@@H](C)C(=O)N[C@@H](C)C(=O)O [LFB (14-31)m, PAWRKAFRWAWRMLKKAA] (H-PAWRKAFRWAWRMLKKAA-OH) | – | – | – | toxicity to fibroblasts [1]: highly toxic to fibroblasts
7 | CC[C@H](C)[C@H](NC(=O)[C@H](CCCNC(=N)N)NC(=O)[C@H](Cc1ccccc1)NC(=O)[C@H](C)NC(=O)[C@H](CCCCN)NC(=O)[C@H](CCCNC(=N)N)NC(=O)[C@H](Cc1c[nH]c2ccccc12)NC(=O)[C@H](C)NC(=O)[C@@H]1CCCN1)C(=O)N[C@@H](C)C(=O)N[C@@H](Cc1c[nH]c2ccccc12)C(=O)N[C@@H](CCCNC(=N)N)C(=O)N[C@@H](CCSC)C(=O)N[C@@H](CC(C)C)C(=O)N[C@@H](CCCCN)C(=O)N[C@@H](CCCCN)C(=O)N[C@@H](C)C(=O)N[C@@H](C)C(=O)O [W9→I9] (H-PAWRKAFRIAWRMLKKAA-OH; N-terminus and C-terminus assumed) | – | – | – | EC50 (human red blood cells; red cells of human): 155 µM
8 | CC[C@H](C)[C@H](NC(=O)[C@H](C)NC(=O)[C@H](Cc1c[nH]c2ccccc12)NC(=O)[C@H](CCCNC(=N)N)NC(=O)[C@H](Cc1ccccc1)NC(=O)[C@H](C)NC(=O)[C@H](CCCCN)NC(=O)[C@H](CCCNC(=N)N)NC(=O)[C@H](Cc1c[nH]c2ccccc12)NC(=O)[C@H](C)NC(=O)[C@@H]1CCCN1)C(=O)N[C@@H](CCCNC(=N)N)C(=O)N[C@@H](CCSC)C(=O)N[C@@H](CC(C)C)C(=O)N[C@@H](CCCCN)C(=O)N[C@@H](CCCCN)C(=O)N[C@@H](C)C(=O)N[C@@H](C)C(=O)O [W11→I11] (H-PAWRKAFRWAIRMLKKAA-OH; N-terminus and C-terminus assumed) | – | – | – | Mic E-coli [3]: ⅖; EC50 (human red blood cells; red cells of human): 63.6 µM; IC50 ([2]; 4 h): 6 µM
9 | (KAAKKAA)3 Bip9,16 [KA27] | > 429 | > 429 | 24 | –
10 | (KAAKKAA)3 F2,9,16,20 [KA17] | > 429 | > 429 | 37 | –
11 | (KAAKKAA)3 W2,3,20 [KA15] | 246 | > 422 | 16 | –
12 | (KAAKKAA)3 W2,3,20,21 [KA19] | 374 | > 402 | 19 | –
13 | (KAAKKAA)3 W2,9,16 [KA 5] | 302 | > 422 | 15 | –
14 | (KAAKKAA)3 W2,9,16,20 [KA 8] | 23 | > 402 | 4 | –
15 | (KAAKKAA)3 W6,10,17 [KA 31] | > 422 | > 422 | 147 | –
16 | (KAAKKAA)3 W7,9,14,16 [KA 4] | 30 | > 402 | 5 | –
17 | (KAAKKAA)3 W7,9,16 [KA 32] | > 422 | > 422 | 28 | –
18 | (KAAKKAA)3 W7,10,17 [KA23] | > 422 | > 422 | 110 | –
19 | (KAAKKAA)3 W7,16,17 [KA24] | > 422 | > 422 | 29 | –
20 | (KAAKKAA)3 W9,16 [KA 7] | > 444 | > 444 | > 222 | –
21 | (OAAOOAA)3 W7,9,14,16 [KA14] | 60 | > 424 | 5 | –
22 | KKAWKWAKKAWKWAKKA [KA18] | 115 | > 451 | 8 | –
23 | KKWAKKAWKWAKKAW [KA22, 15-mer] | > 514 | > 514 | 30 | –
24 | WKWAKKAAKWAWKAA [KA20, 15-mer] | 307 | > 546 | 140 | –
25 | WKWAKKAWKWAKKAA [KA21, 15-mer] | > 530 | > 530 | 32 | –
